The text below walks through data of patent publication US9883691B2, “Food and beverage products containing 1,3-propanediol and methods of modifying flavor release using 1,3-propanediol” (Kraft Foods Group Brands LLC, priority 2012, dated 2018).

The conditions of data set [1]: not marked (est); cited from earlier work.
The nature of data set [2]: PTR-MS headspace release at various flavor compound to 1,3-propanediol or PG ratios (Example 2). To be noted: for release suppressed in the presence of 1,3-propanediol: 10% cut-off for significant difference, relative to PG; for Percent Suppression by 1,3-propanediol: (IZ−IPG)/IPG×100. In kind it is physicochemical. In short, it runs like this:
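A mixed liquid flavoring was dosed into a beverage at 8 ppm per compound (furfuryl mercaptan 1.6 ppm), with varying amounts of propylene glycol or 1,3-propanediol. Headspace release was measured by PTR-MS. Percent suppression was calculated from peak heights as (IZ−IPG)/IPG×100, relative to PG.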

Data set [3] is described as follows: PTR-MS headspace release from stored beverages, water/solvent experiment (Example 4). In kind it is physicochemical. To be noted: beverage stored refrigerated; 1.5, 24, 48 and 72 hours; Tukey-Kramer. The procedure: 0.86 grams of the flavor concentrate was then added to 100 grams of either propylene glycol or 1,3-propanediol to provide diluted concentrates. […].
The beverages were then stored in sealed containers in a refrigerator. The container was opened five times over the course of the experiment and therefore represented a beverage in a sealed container being opened for multiple uses. 15 gram samples were weighed into a 4 ounce cup and analyzed at 1.5 hours, 24 hours, 48 hours, and 72 hours after storage.
The samples were analyzed in triplicate by PTR-MS as described below to determine impact of 1,3-propanediol or propylene glycol on release of the flavors from the beverage. The PTR-MS was performed as follows. A sampling apparatus was needed in conjunction with the PTR-MS inlet to prevent variations caused by headspace kinetics. The sampling apparatus used includes a 4 ounce sample vessel equipped with a 2-hole lid which may be sealed by an adhesive film to allow equilibration. […]. The holes were equal sized (˜2 mm diameter) and match the outer diameter of the PTR-MS inlet line. The flow of the dilution gas into the vessel was regulated by the vacuum and proportional valve of the PTR-MS inlet system. […] The 2 holes in the lid were equidistant from the edge of the vessel (˜20 mm) and ˜30 mm from each other. The PTR-MS inlet was braced by clamps in a fixed position vertically above the laboratory bench (˜55 mm) and a silicone rubber depth gauge was affixed to the PTR-MS inlet tubing and set at 18 mm. The PTR-MS inlet was consistently oriented in a vertical position […] below the inside lid of the vessel and 19 mm above the sample in the vessel. The sample vessel was then held in place during sampling according to the depth gauge on the inlet line and the vessel was subsequently supported on the bench by a 10 mm plastic spacer.
15 grams of the sample to be tested (e.g., food or beverage product containing 1,3-propanediol) are added to the vessel and the vessel is sealed and allowed to equilibrate at room temperature (˜22° C.) for 90 minutes. At the time of sampling, the seal was removed from both the sampling hole and the dilution gas hole in the lid and the vessel was immediately affixed to the PTR-MS inlet via the sampling hole. The real-time released flavor was measured from the headspace of the sample vessel for two minutes (according to the conditions listed in Table 1 above).
The data was analyzed using PTR-MS Viewer, Version 3.0.0.101 (Ionicon Analytik G.m.b.H). The point of maximum intensity for each compound of interest was determined and recorded according to the PTR-MS Viewer software. The maximum intensity in counts over the timescale for each compound of interest was used for data analysis as it reflected the static equilibrium headspace concentration in the system at the moment of seal removal. Due to the necessity of a dilution gas, the volatile concentration decreased over time as the compounds of interest re-equilibrated to a state of dynamic equilibrium in the headspace.
The statistical differences were determined by Tukey-Kramer Honest […]. […].

Setting [4] is: ratio 0.005:100, negative = suppressed vs PG.

For the compound `CC=O` [Acetaldehyde], the “logP (o/w)” value in data set [1] is given as −0.16. Further, in data set [2], the “release suppressed in the presence of 1,3-propanediol” value is “suppressed”. The “effect of 1,3-propanediol on release” value in data set [2] (flavor/1,3-propanediol ratio of 0.005:100, 0.05:100, and 5:100) is on record as “significant suppression effect”; in data set [2] (ratio 0.005:100), “still suppressed”. The “Percent Suppression by 1,3-propanediol” value is reported as −22.1% in data set [2] (setting [4]), −37.3% in data set [2] (ratio 0.05:100), −57.4% in data set [2] (ratio 5:100) and 64.5% in data set [2] (ratio 15:100). The “effect of 1,3-propanediol on flavor release relative to propylene glycol, water/solvent” value in data set [3] is “released faster in propylene glycol”.

As for `CCCC(=O)OCC` [Ethyl butyrate], the “Percent Suppression by 1,3-propanediol” value in data set [2] (setting [4]) is reported as 3.2%; in data set [2] (ratio 0.05:100), 14.9%; in data set [2] (ratio 5:100) it was −21.8%; in data set [2] (ratio 15:100), −3.3%. The “effect of 1,3-propanediol on flavor release relative to propylene glycol, water/solvent” value in data set [3] is “little effect”.

For `O=Cc1ccccc1` [Benzaldehyde], the “release suppressed in the presence of 1,3-propanediol” value in data set [2] is on record as “suppressed”. In data set [2] (flavor/1,3-propanediol ratio of 0.05:100 and 5:100), the “effect of 1,3-propanediol on release” value is “significant suppression effect”. Besides, the “Percent Suppression by 1,3-propanediol” value in data set [2] (setting [4]) is on record as −0.5%; in data set [2] (ratio 0.05:100) it was −90.3%; in data set [2] (ratio 5:100), −40.6%; in data set [2] (ratio 15:100), −16.2%. Besides, in data set [3], the “effect of 1,3-propanediol on flavor release relative to propylene glycol, water/solvent” value was “significantly suppressed release”.
